# Assay results from US10538496B2, “Methods using HDAC11 inhibitors” (FORMA Therapeutics, Inc., priority 2016, dated 2020).
# Columns and labels:
# A549 cells = test: Cell migration (scratch) assay; assay type: cell-based
# Experimental: The effects of HDAC11 inhibition on cell migration were determined using a scratch assay. A549 cells (120,000-150,000 cells/2 ml/well) were grown in 6-well tissue culture plates (BD Biosciences). A scratch was made using a sterile 2 μl pipette tip in each well. The 10% FBS containing medium was added to the wells after a wash with DPBS. To assess the effect of the HDAC11 inhibitors on cell migration, the inhibitors were added in the medium at appropriate concentrations. The cells were further incubated at 37° C. The images were taken on Day 0 and after every 24 hours using EVOS FL microscope system and EVOS software (Life Technologies Inc) and the cell migration was compared to the Day 0 of treatment.
# [1] = system: H1650 cells co-cultured with primary CAFs from human lung cancer; test: Co-culture assay with cancer cells and cancer associated fibroblasts; assay type: cell-based
# Experimental: The effects of selective HDAC11 inhibition on cancer cells and cancer associated fibroblasts (CAFs) were determined in a co-culture assay. The cells were first trypsinized and collected in serum containing medium and were further incubated in same media at 37° C. for 15-20 min for recovery. The cells were resuspended in serum free media at 1×10^6 cells/ml density and stained with 10 uM of cytotracker green (Cancer associated fibroblasts) or cytotracker red dye (H1650 cells) (Life Technologies Inc) at 37° C. for 90 min. The stained cells were washed twice with serum free medium to remove excess dye at 1500 rpm for 5 min. The cytotracker green stained CAFs were mixed with cytotracker red stained H1650 cells in 1:1 ratio and grown in 96-well tissue culture plate overnight. The HDAC11 inhibitors were then added to the mixed adhered cells (CAFs+H1650) at appropriate concentrations. The images were taken on Day 0 and after every 24 hours using EVOS FL microscope system and EVOS software (Life Technologies Inc).
# H1650 SP cells = test: Tube formation assay with stem-like side population NSCLC cells; assay type: cell-based; conditions: on Matrigel, overnight
# Experimental: The angiogenic tubule assay was performed with the sorted side population cells to analyze vascular mimicry. The H1650 side population cells were sorted as mentioned above and they were further grown on Matrigel (BD Biosciences) to form angiogenic tubule-like structures. 100 μl of thawed Matrigel was layered on the wells of 96-well tissue culture plates and allowed to polymerize at 37° C. for 30 min. Sorted H1650 SP cells were layered (12000 cells/100 μl of Matrigel) on the polymerized matrigel and incubated overnight at 37° C. Tubule formation was assessed under bright field using EVOS FL microscope system and images were acquired with EVOS software (Life Technologies Inc., USA). For the treatment with HDAC11 inhibitors, appropriate concentrations of the compounds were added to the cells when they were seeded on Matrigel for the tubule formation assay.
# [2] = system: myeloid cells from MPN patients; test: Colony formation assay from patient samples; assay type: cell-based, human; conditions: two patient samples (ET; PV, Ruxolitinib resistant)
# Experimental: (§1) To determine the effects of selective HDAC11 inhibition on MPN patient samples, the effects of HDAC11 inhibitors were evaluated in a colony formation assay with erythroid or myeloid cells from MPN patients. Peripheral blood was obtained from MPN patients consented through the Moffitt Cancer Center Total Cancer Care protocol (MCC 14690). Blood was treated with HetaSep™ (STEMCELL Technologies, Inc.) to remove the majority of red blood cells. Peripheral blood mononuclear cells (PBMCs) were isolated by ficoll separation. PBMCs (1-4×105) were then plated in 1 mL of methylcellulose medium containing rhSCF, rhIL-3, and granulocyte-macrophage colony-stimulating factor (rhGM-CSF) (MethoCult™ #H4534; STEMCELL Technologies, Inc.). All drug treated samples contained 0.1% DMSO as the final concentration. Cells were incubated at 37° C. and 5% CO2 in a humidified incubator. Colonies were scored 12 to 14 days after plating.
# [3] = system: erythroid cells from MPN patients; test: Colony formation assay from patient samples; assay type: cell-based, human; conditions: two patient samples (ET; PV, Ruxolitinib resistant)
# Experimental: as §1
# [4] = system: STAT3 and STAT5 phosphorylation in HEL 92.1.7 cells; test: STAT3 and STAT5 phosphorylation western blot assay; assay type: cell-based
# Experimental: The effects of selective HDAC11 inhibition on STAT3 and STAT3 phosphorylation in HEL 92.1.7 cells were determined by western blot. Cells were treated with HDAC11 inhibitors and lysed in RIPA buffer (Sigma-Aldrich, St. Louis, Mo.) supplemented with protease inhibitors (Roche, Basel, Switzerland) and phosphatase inhibitors (Sigma P5726). Protein concentrations were determined with Pierce BCA protein assay kit (Thermo Fisher Scientific, Waltham, Mass.). Proteins were separated on a 4-12% Bis-Tris gradient electrophoresis gel (Life Technologies, Carlsbad, Calif.) and transferred onto a nitrocellulose membrane. The membrane was then blocked in either 5% nonfat dry milk or 5% BSA followed by incubation with primary antibodies at 4° C. overnight. Antibodies for p-STAT5 (Abcam 32364), STAT5 (Cell Signaling 9358), p-STAT3 (Cell Signaling 9145) and STAT3 (Cell Signaling 9139) were used. β-actin was used as loading control.
# SET-2 cells = test: Cell proliferation assay (CCK8); assay type: cell-based; conditions: Ruxolitinib-resistant SET-2
# Experimental: This example describes inhibition of in vitro cell proliferation with exemplary HDAC11 inhibitors. The effects of selective HDAC11 inhibitors on cell proliferation were measured in cell lines containing the MPN-associated mutations MPL W515L (Ba/F3 MPL W515L) and JAK2 V617F (Ba/F3 JAK2 V617F, HEL 92.1.7, SET-2). HEL 92.1.7 and SET-2 cells were purchased from the ATCC and DSMZ, respectively. Ba/F3 cells overexpressing either MPLW515L or JAK2V617F, which were cytokine independent, were generated by transforming Ba/F3 cells with retroviruses overexpressing either MPL W515L or JAK2V617F. For survival assays, cells were seeded in 96-well plates at the density of 0.1 million/ml with addition of indicated compounds and incubated at 37° C. for 48h. CCK8 solution (Dojindo, Rockville, Md.) was added and absorbance at 450 nm was measured after 3 hours of incubation. Readings were normalized to dimethylsulfoxide (DMSO)-treated wells.
SMILES,A549 cell migration (A549 cells),growth of H1650 cells co-cultured with primary CAFs ([1]; 1:1 co-culture),effects on CAFs ([1]; 1:1 co-culture with H1650 cells),tubule formation by H1650 SP cells (H1650 SP cells),growth of colonies from myeloid cells [2],growth of colonies from erythroid cells [3],STAT3 phosphorylation [4],STAT5 phosphorylation [4],growth of a SET-2 cell line generated to be Ruxolitinib-resistant (SET-2 cells)
"O=C(NO)c1cccc2c1C[C@]1(CCN(Cc3ccc(Cl)c(C(F)(F)F)c3)C1=O)C2 [HDTK054, (S)-1′-(4-chloro-3-(trifluoromethyl)benzyl)-N-hydroxy-2′-oxo-1,3-dihydrospiro[indene-2,3′-pyrrolidine]-4-carboxamide]",impaired A549 cell migration,inhibit the growth,minimal effects,inhibited tubule formation,–,–,–,–,–
"O=C(NO)c1cccc(Nc2nc3cc(Cl)c(Cl)cc3o2)c1 [HDTK010, 3-((5,6-dichlorobenzo[d]oxazol-2-yl)amino)-N-hydroxybenzamide]",–,–,–,–,reduced the growth of colonies,reduced the growth of colonies,inhibited,inhibited,inhibited the growth
